Laboratory results: patent publication US20130029928A1 (priority 2010, published 2013)
Where two headings read alike, the source gives them in different places.

Experiment: Phase I study CXR1002-001: plasma pharmacokinetics (LC-MS/MS)
Format: in vivo, human
Conditions: human, plasma, oral; for concentration at 843 h / concentration at 844 h / concentration at 864 h / concentration at 3 h / concentration at 4 h / concentration at 24 h / concentration at 168 h / concentration at 170 h / concentration at 171 h / concentration at 192 h / concentration at 336 h / concentration at 338 h / concentration at 339 h / concentration at 340 h / concentration at 360 h / concentration at 504 h / concentration at 506 h / concentration at 507 h / concentration at 508 h / concentration at 528 h / concentration at 672 h / concentration at 674 h / concentration at 675 h / concentration at 676 h / concentration at 696 h / concentration at 840 h / concentration at 842 h / concentration at 2 h / concentration at 172 h: read-out: Concentration; for concentration at 864 h: 864 hr (Day 37); for concentration at 24 h: 24 hr (Day 2); for concentration at 168 h: 168 hr (Day 8); for concentration at 336 h: 336 hr (Day 15); for concentration at 504 h: 504 hr (Day 22); for concentration at 528 h: 528 hr (Day 23); for concentration at 672 h: 672 hr (Day 29); for concentration at 840 h: 840 hr (Day 36)
Excerpt: PK samples, PD (fasting) samples, blood glucose, and blood triglyceride samples, were taken over a 6-week period.
Dose limiting toxicity (DLT) will be based on the toxicity assessments over the first 3-week period of the repeat dosing schedule. PK samples (single blood sample) were taken on the following basis: • Every 6 weeks during the repeat dosing phase • If dosing is interrupted or stopped, samples will be taken at intervals according to patient convenience • PK sampling for safety evaluation may take place at any time, as clinically indicated
Plasma samples were collected after the single 50 mg dose at the following timepoints: Pre-dose, and then 0.25, 0.5, 0.75, 1, 1.5, 2, 3, 4, 6, 24, 48, and 72 hours after administration and then once weekly at weeks 2, 3, 4, 5, and 6 (days 8, 15, 22, 29, and 36). For patients treated with the weekly repeat dose, plasma samples were collected at the following timepoints: Pre-dose and then 2, 3, 4 and 24 hours after administration for a total of 6 weeks. Thereafter a single sample was collected every 6 weeks for monitoring of exposure during long term treatment. Plasma samples were processed at site and stored at −80° C. prior to batch shipment to the analytical laboratory.

[1] = 300 mg, Patient 014 Dose 300 mg
[2] = 450 mg, Patient 015 Dose 450 mg
[3] = 450 mg, Patient 016 Dose 450 mg
[4] = 450 mg, Patient 017 Dose 450 mg
[5] = 600 mg, Patient 018, 600 mg, person
[6] = 600 mg, Patient 020, 600 mg, person
[7] = 600 mg, Patient 021, 600 mg, person

Which results are given for `O=C(O)C(F)(F)C(F)(F)C(F)(F)C(F)(F)C(F)(F)C(F)(F)C(F)(F)F` [CXR1002]?
concentration at 843 h [1]: 520 µM; concentration at 844 h [1]: 563 µM; concentration at 864 h [1]: 488 µM; concentration at 12 week (300 mg, Patient 014 Dose 300 mg, Week 12): 890 µM; concentration at 18 week (300 mg, Patient 014 Dose 300 mg, Week 18): 980 µM; concentration at 3 h [2]: 231 µM; concentration at 4 h [2]: 217 µM; concentration at 24 h [2]: 126 µM; concentration at 168 h [2]: 138 µM; concentration at 170 h [2]: 325 µM; concentration at 171 h [2]: 314 µM; concentration at 192 h (450 mg, Patient 015 Dose 450 mg, 192 hr (Day 9)): 294 µM; concentration at 336 h [2]: 286 µM; concentration at 338 h [2]: 463 µM; concentration at 339 h [2]: 393 µM; concentration at 340 h [2]: 424 µM; concentration at 360 h (450 mg, Patient 015 Dose 450 mg, 360 hr (Day 16)): 412 µM; concentration at 504 h [2]: 387 µM; concentration at 506 h [2]: 579 µM; concentration at 507 h [2]: 548 µM; concentration at 508 h [2]: 513 µM; concentration at 528 h [2]: 551 µM; concentration at 672 h [2]: 544 µM; concentration at 674 h [2]: 622 µM; concentration at 675 h [2]: 633 µM; concentration at 676 h [2]: 675 µM; concentration at 696 h (450 mg, Patient 015 Dose 450 mg, 696 hr (Day 30)): 708 µM; concentration at 840 h [2]: 575 µM; concentration at 842 h [2]: 703 µM; concentration at 843 h [2]: 655 µM; concentration at 844 h [2]: 801 µM; concentration at 864 h [2]: 592 µM; concentration at 2 h [3]: 108 µM; concentration at 3 h [3]: 126 µM; concentration at 4 h [3]: 88.1 µM; concentration at 24 h [3]: 164 µM; concentration at 170 h [3]: 328 µM; concentration at 171 h [3]: 255 µM; concentration at 172 h [3]: 244 µM; concentration at 192 h (450 mg, Patient 016 Dose 450 mg, 192 hr (Day 9)): 348 µM; concentration at 336 h [3]: 287 µM; concentration at 338 h [3]: 418 µM; concentration at 339 h [3]: 454 µM; concentration at 340 h [3]: 442 µM; concentration at 360 h (450 mg, Patient 016 Dose 450 mg, 360 hr (Day 16)): 471 µM; concentration at 504 h [3]: 546 µM; concentration at 506 h [3]: 693 µM; concentration at 507 h [3]: 721 µM; concentration at 508 h [3]: 698 µM; concentration at 528 h [3]: 692 µM; concentration at 672 h [3]: 605 µM; concentration at 674 h [3]: 907 µM; concentration at 675 h [3]: 745 µM; concentration at 676 h [3]: 732 µM; concentration at 696 h (450 mg, Patient 016 Dose 450 mg, 696 hr (Day 30)): 871 µM; concentration at 2 h [4]: 99.7 µM; concentration at 3 h [4]: 136 µM; concentration at 4 h [4]: 163 µM; concentration at 336 h [4]: 216 µM; concentration at 338 h [4]: 325 µM; concentration at 339 h [4]: 342 µM; concentration at 360 h (450 mg, Patient 017 Dose 450 mg, 360 hr): 258 µM; concentration at 672 h [4]: 404 µM; concentration at 674 h [4]: 451 µM; concentration at 675 h [4]: 497 µM; concentration at 676 h [4]: 485 µM; concentration at 696 h (450 mg, Patient 017 Dose 450 mg, 696 hr): 483 µM; concentration at 2 h [5]: 339 µM; concentration at 3 h [5]: 280 µM; concentration at 4 h [5]: 248 µM; concentration at 24 h [5]: 213 µM; concentration at 168 h [5]: 181 µM; concentration at 170 h [5]: 398 µM; concentration at 171 h [5]: 407 µM; concentration at 192 h (600 mg, Patient 018, 600 mg, person, 192 hr (day 9)): 386 µM; concentration at 336 h [5]: 356 µM; concentration at 338 h [5]: 551 µM; concentration at 339 h [5]: 563 µM; concentration at 340 h [5]: 591 µM; concentration at 360 h (600 mg, Patient 018, 600 mg, person, 360 hr (Day 16)): 554 µM; concentration at 2 h [6]: 208 µM; concentration at 4 h [6]: 180 µM; concentration at 24 h [6]: 413 µM; concentration at 168 h [6]: 125 µM; concentration at 170 h [6]: 327 µM; concentration at 171 h [6]: 310 µM; concentration at 172 h [6]: 279 µM; concentration at 192 h (600 mg, Patient 020, 600 mg, person, 192 hr (day 9)): 268 µM; concentration at 336 h [6]: 272 µM; concentration at 338 h [6]: 474 µM; concentration at 339 h [6]: 434 µM; concentration at 340 h [6]: 438 µM; concentration at 360 h (600 mg, Patient 020, 600 mg, person, 360 hr (Day 16)): 410 µM; concentration at 504 h [6]: 441 µM; concentration at 506 h [6]: 477 µM; concentration at 507 h [6]: 526 µM; concentration at 508 h [6]: 536 µM; concentration at 528 h [6]: 563 µM; concentration at 672 h [6]: 540 µM; concentration at 674 h [6]: 547 µM; concentration at 675 h [6]: 603 µM; concentration at 676 h [6]: 652 µM; concentration at 696 h (600 mg, Patient 020, 600 mg, person, 696 hr (Day 30)): 615 µM; concentration at 840 h [6]: 582 µM; concentration at 842 h [6]: 700 µM; concentration at 843 h [6]: 764 µM; concentration at 844 h [6]: 770 µM; concentration at 864 h [6]: 703 µM; concentration at 2 h [7]: 77.2 µM; concentration at 3 h [7]: 121 µM; concentration at 24 h [7]: 203 µM; concentration at 168 h [7]: 218 µM; concentration at 170 h [7]: 504 µM; concentration at 171 h [7]: 417 µM; concentration at 172 h [7]: 451 µM
